These results are taken from patent US11725199B2, “Lactic acid bacteria with sweetening properties and uses thereof” (DUPONT NUTRITION BIOSCIENCES APS, priority 2017, dated 2023).

Where a chain is given by its changes, count along the chain named.

Common to all, as to test: Maximal forward velocity and Km of GlcK, glucose varied (test C)
What all share (type): biochemical

Test [1] concerns the target T1, Streptococcus thermophilus glucokinase (GlcK) of strain ST1.2 (parent) (Streptococcus thermophilus, UniProt Q5M4Y5).
T1 construct: G-6PDH/NADP coupled assay
T1 sequence (Q5M4Y5 1-322): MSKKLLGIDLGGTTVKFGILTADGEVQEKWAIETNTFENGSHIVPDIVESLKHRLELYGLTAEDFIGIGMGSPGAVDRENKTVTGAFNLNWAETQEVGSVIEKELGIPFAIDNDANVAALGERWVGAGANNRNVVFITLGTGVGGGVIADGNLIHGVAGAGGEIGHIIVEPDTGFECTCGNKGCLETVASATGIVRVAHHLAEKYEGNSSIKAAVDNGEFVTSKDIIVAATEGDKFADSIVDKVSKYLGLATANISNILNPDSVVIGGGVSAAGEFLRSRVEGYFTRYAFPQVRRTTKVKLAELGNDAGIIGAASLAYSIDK
How it is done:
(§1) A fresh overnight culture of a Streptococcus thermophilus strain in M17 containing 30 g/L lactose was obtained and used to inoculate at 1% (vol/vol) 10 ml of fresh M17 30 g/L lactose. Cells were harvested by centrifugation (6000 g, 10 min, 4° C.) at a 600 nm optical density (OD600) of 0.8+/−0.2, washed in 5 ml cold GLCK buffer (5 mM MgCl2, 10 mM K2HPO4/KH2PO4 [pH 7.2]), and resuspended in 500 μl cold GLCK buffer. EDTA-free protease inhibitors “cOmplete™” (Roche, supplier reference 04693132001) was added in GLCK buffer as described by the provider. Cells were disrupted by the addition of 100 mg glass beads (150-212 μm, Sigma G1145) to 200 μl resuspended cells and oscillation at a frequency of 30 cycles/s for 6 min in a MM200 oscillating mill (Retsch, Haan, Germany). Cell debris and glass beads were removed by centrifugation (14000 g, 15 min, 4° C.), and supernatant transferred into a clean 1.5 mL centrifuge tube kept on ice. Total protein content was determined by using the FLUKA Protein Quantification Kit-Rapid (ref 51254). The glucokinase activity in the cell extracts was determined spectrophotometrically by a glucose-6-phosphate dehydrogenase (G-6PDH, EC1.1.1.49):[…] assay (Porter et al., 1982), essentially as described by Pool et al. (2006). […] The optical density at 340 nm was measured for 5 minutes by using a Synergy HT multi-detection microplate reader (BIO-TEK). […] Glucokinase activity was calculated as follows:
(§2) Glucokinase activity (U/g of total protein extract)=dOD×V/[dt×l×ε×Qprot], wherein: • dOD is the variation of optical density (OD) at 340 nm • V is the volume of the reaction (herein 250 μL)
(§3) Measurements were triplicated for each sample, and the glucokinase specific activity values given herein under test A are the mean of three independent experiments.
(§4) Measurements were triplicated for each sample, and the Vmax values given herein under test C are the mean of three independent experiments.
(§5) The respective mutants were called ST1.1m-glcK and ST1.2m-glcK. The GlcK sequence of these 2 mutants is as defined in SEQ ID NO:22.

Test [2] deals with T2, Streptococcus thermophilus glucokinase (GlcK) of strain ST1.1 (parent) (Streptococcus thermophilus, UniProt Q5M4Y5).
T2 construct: G-6PDH/NADP coupled assay
T2 sequence (Q5M4Y5 1-322): T1 sequence (Q5M4Y5 1-322)
How it is done:
as §1, §2, §3, §4, §5

The target of test [3] is T3, Streptococcus thermophilus glucokinase (GlcK) variant E275K of ST1.1, strain ST1.1m-glcK, SEQ ID NO: 22 (Streptococcus thermophilus, UniProt Q5M4Y5, E275K).
T3 construct: G-6PDH/NADP coupled assay
T3 sequence (Q5M4Y5 1-322 E275K): T1 sequence (Q5M4Y5 1-322) with E275K
How it is done: as §1, §2, §3, §4, §5

Test [4] deals with T4, Streptococcus thermophilus glucokinase (GlcK) variant E275K of ST1.2, strain ST1.2m-glcK, SEQ ID NO: 22 (Streptococcus thermophilus, UniProt Q5M4Y5, E275K).
T4 construct: G-6PDH/NADP coupled assay
T4 sequence (Q5M4Y5 1-322 E275K): T1 sequence (Q5M4Y5 1-322) with E275K
The protocol: as §1, §2, §3, §4, §5

Test [5] addresses T5, Streptococcus thermophilus glucokinase (GlcK) variant E275K of DGCC7710, strain DSM32587 (DGCC12534), SEQ ID NO: 22 (Streptococcus thermophilus, UniProt Q5M4Y5, E275K).
T5 construct: G-6PDH/NADP coupled assay
T5 sequence (Q5M4Y5 1-322 E275K): T1 sequence (Q5M4Y5 1-322) with E275K
The note with it: DSM32587 crude extract, glucose 0, 5, 10, 15, 20 mM, 1 mM ATP, pH 7.2, 30° C. The protocol: A fresh overnight culture of a Streptococcus thermophilus strain in M17 containing 30 g/L lactose was obtained and used to inoculate at 1% (vol/vol) 10 ml of fresh M17 30 g/L lactose. Cells were harvested by centrifugation (6000 g, 10 min, 4° C.) at a 600 nm optical density (OD600) of 0.8+/−0.2, washed in 5 ml cold GLCK buffer (5 mM MgCl2, 10 mM K2HPO4/KH2PO4 [pH 7.2]), and resuspended in 500 μl cold GLCK buffer. EDTA-free protease inhibitors “cOmplete™” (Roche, supplier reference 04693132001) was added in GLCK buffer as described by the provider. Cells were disrupted by the addition of 100 mg glass beads (150-212 μm, Sigma G1145) to 200 μl resuspended cells and oscillation at a frequency of 30 cycles/s for 6 min in a MM200 oscillating mill (Retsch, Haan, Germany). […] Total protein content was determined by using the FLUKA Protein Quantification Kit-Rapid (ref 51254). The glucokinase activity in the cell extracts was determined spectrophotometrically by a glucose-6-phosphate dehydrogenase (G-6PDH, EC1.1.1.49):[…] assay (Porter et al., 1982), essentially as described by Pool et al. (2006). […] The optical density at 340 nm was measured for 5 minutes by using a Synergy HT multi-detection microplate reader (BIO-TEK). […] Glucokinase activity was calculated as follows: […]

Test [6] addresses T6, Streptococcus thermophilus glucokinase (GlcK) of strain DGCC7710 (DSM28255, GlcK type ST1), non-mutated, SEQ ID NO: 2 (Streptococcus thermophilus, UniProt Q5M4Y5).
T6 construct: G-6PDH/NADP coupled assay
T6 sequence (Q5M4Y5 1-322): T1 sequence (Q5M4Y5 1-322)
To be noted: DGCC7710 crude extract; glucose 0, 5, 10, 15, 20 mM; 1 mM ATP; pH 7.2; 30° C; average of three experiments.

For the compound `OC[C@H]1OC(O)[C@H](O)[C@@H](O)[C@@H]1O` (some centres unmarked) [glucose], the “Vm Glucokinase (glucose)” value in test [1] (ST1.2, summary table) is 2431; in test [2] (ST1.1, summary table), 2687; in test [3] (ST1.1m-glcK, summary table), 795; in test [4] (ST1.2m-glcK, summary table) it was 501. Also, the “Vmax Glucokinase (glucose)” value in test [1] (ST1.2 crude extract, glucose 0, 5, 10, 15, 20 mM, 1 mM ATP, pH 7.2, 30° C, average of three experiments) amounted to 2431 U/g total protein extract; in test [2] (ST1.1 crude extract, glucose 0, 5, 10, 15, 20 mM, 1 mM ATP, pH 7.2, 30° C, average of three experiments), 2687 U/g total protein extract; in test [3] (ST1.1m-glcK crude extract, glucose 0, 5, 10, 15, 20 mM, 1 mM ATP, pH 7.2, 30° C, average of three experiments), 795 U/g total protein extract; in test [4] (ST1.2m-glcK crude extract, glucose 0, 5, 10, 15, 20 mM, 1 mM ATP, pH 7.2, 30° C, average of three experiments), 501 U/g total protein extract; in test [5] (average of three experiments), 914 U/g total protein extract; in test [6], 2855 U/g total protein extract. In test [5] (read-out: Km Glucokinase (glucose), average), the Km came out at 1330 µM.

By Km is commonly meant the substrate concentration at which the rate is half of its maximum.
